US9440933B2, “Azole derivative, method for producing same, intermediate compound, and agricultural or horticultural chemical agent and industrial material protecting agent” (KUREHA CORPORATION, priority 2011, dated 2016)

Key:
[1] = tested on: wheat leaf blight-causing microbe; assay: Antimicrobial activity to wheat leaf blight-causing microbe (PDA plate, hyphal expansion inhibition); format: cell-based, Septoria tritici; conditions: 336 h, PDA medium, 25° C., 14 days; for inhibition at 50 µg/mL: Concentration 50 mg/L, read-out: Growth inhibition; for inhibition at 1.25 µg/mL: test sample concentration 1.25 mg/L, read-out: hyphal expansion-inhibiting rate
Protocol: In this Test Example, antimicrobial activity of the inventive compounds to wheat leaf blight-causing microbe was determined and compared with that of the comparative compound (1).

[2] = tested on: wheat leaf rust-causing microbe; assay: Wheat leaf rust-controlling activity (foliar spray, pot test); format: in vivo, Puccinia recondita; conditions: Concentration 25 g/ha; wettable powder sprayed on wheat (Norin No. 61), 9 to 14 days after inoculation
[3] = tested on: Wheat fusarium blight-causing microbe (Fusarium graminearum); format: cell-based; conditions: 50 mg/L
[4] = tested on: Rice blast-causing microbe (Pyricularia oryzae); format: cell-based; conditions: 50 mg/L
[5] = tested on: wheat powdery mildew-causing microbes; assay: Controlling activity to wheat powdery mildew of seed treatment (pot test); format: in vivo, Erysiphe graminis f. sp tritici; conditions: 2 mg in DMSO applied to wheat seeds 1 g, 14 to 28 days after seeding
Protocol: Controlling activity to wheat powdery mildew was examined in a pot test. Each of the inventive compounds […]-53, and a comparative compound (1) was weighed in an amount of 2 mg and dissolved in DMSO (18 μl). The solution thus prepared was applied to wheat seeds 1 g in a vial, 8 wheat seeds were seeded in a 80 cm^2 pot. The wheat was grown, as water was supplied from blow, in a greenhouse where wheat powdery mildew-causing microbes are present abundantly. The incidence rate was determined and the controlling rate and additionally the controlling index calculated 14 to 28 days after seeding. The controlling rate was calculated and the wheat powdery mildew controlling index determined according to the following equation: Controlling rate=(1-Incidence rate in treated region/Incidence rate in non-treated region)×100(%) [table]

[6] = tested on: Wheat glume blotch-causing microbe (Phaeosphaeria nodorum); assay: Antimicrobial activity to various pathogenic microbes: P.n; conditions: 50 mg/L
Protocol: (§1) An inventive compound was dissolved in dimethylsulfoxide 2 ml. The solution 0.6 ml was added to a PDA medium (potato-dextrose-agar medium) 60 ml at around 60° C.
(§2) A flat plate containing a test microbe (wheat leaf blight-causing microbe) cultured separately was punched into pieces with a cork borer having a diameter of 4 mm and the circular plate obtained was placed on the flat plate media containing the chemical described above. The plates were cultured at 25° C. for 14 days after inoculation and the diameter of the microbial colony was determined. Hyphal expansion-inhibiting rate was calculated according to the following equation: R=100(dc−dt)/dc (wherein, R: hyphal expansion-inhibiting rate (%), dc: diameter of microbial colony on non-treated flat plate, dt: diameter of microbial colony on chemically-treated flat plate).
(§3) In this Test Example, the antimicrobial activity of the inventive compounds to various plant disease-causing fungi and industrial material-eroding microorganisms was studied by the method described in Example 1.
(§4) The results thus obtained were evaluated in 5 stages according to the criteria below:
Wheat glume blotch-causing microbe (Phaeosphaeria nodorum) P.n

[7] = tested on: Wheat eye spot-causing microbe (Pseudocercoporella herpotrichoides); assay: Antimicrobial activity to various pathogenic microbes: P.h; conditions: 50 mg/L
Protocol: as §1
(§5) The plates were cultured at 25° C. for 14 days after inoculation and the diameter of the microbial colony was determined. Hyphal expansion-inhibiting rate was calculated according to the following equation: R=100(dc−dt)/dc (wherein, R: hyphal expansion-inhibiting rate (%), dc: diameter of microbial colony on non-treated flat plate, dt: diameter of microbial colony on chemically-treated flat plate).
as §4
Wheat eye spot-causing microbe (Pseudocercoporella herpotrichoides) P.h

[8] = tested on: Barley loose smut-causing microbe (Ustilago nuda); assay: Antimicrobial activity to various pathogenic microbes: U.n; conditions: 50 mg/L
Protocol: as §1, §5, §4
Barley loose smut-causing microbe (Ustilago nuda) U.n

[9] = tested on: Rice bakanae disease-causing microbe (Gibberella fujikuroi); assay: Antimicrobial activity to various pathogenic microbes: G.f; conditions: 50 mg/L
Protocol: as §1, §2, §4

[10] = tested on: Apple alternaria blotch-causing microbe (Alternaria alternata); assay: Antimicrobial activity to various pathogenic microbes: A.m; conditions: 50 mg/L
Protocol: as §1, §2, §3, §4
Apple alternaria blotch-causing microbe (Alternaria alternata) A.m

[11] = tested on: Sclerotinia rot-causing microbe (Sclerotinia sclerotiorum); assay: Antimicrobial activity to various pathogenic microbes: S.s; conditions: 50 mg/L
Protocol: as §1, §2, §4
Sclerotinia rot-causing microbe (Sclerotinia sclerotiorum) S.s

[12] = tested on: Gray mold-causing microbe (Botrytis cinerea); assay: Antimicrobial activity to various pathogenic microbes: B.c; conditions: 50 mg/L
Protocol: as §1, §2, §3, §4
Gray mold-causing microbe (Botrytis cinerea) B.c

[13] = tested on: Cucumber Fusarium wilt-causing microbe (Fusarium oxysporum); assay: Antimicrobial activity to various pathogenic microbes: F.c; conditions: 50 mg/L
Protocol: as §1, §2, §4

[14] = tested on: Barley scald-causing microbe (Rhynchosporium secalis); assay: Antimicrobial activity to various pathogenic microbes: R.sec; conditions: 50 mg/L
Protocol: as §1, §2, §3, §4
Barley scald-causing microbe (Rhynchosporium secalis) R.sec

wheat = assay: Damage to wheat (growth inhibition) by seed treatment (pot test); conditions: 2 mg in DMSO applied to wheat seeds 1 g, 14 to 28 days after seeding, larger index = smaller damage

SMILES | inhibition at 50 µg/mL [1] [%] | inhibition at 1.25 µg/mL [1] [%] | Controlling index [2] | Growth inhibition (hyphal expansion-inhibiting rate grade) F.g [3] | Growth inhibition (hyphal expansion-inhibiting rate grade) P.o [4] | Controlling index Wheat powdery mildew [5] | Growth inhibition (hyphal expansion-inhibiting rate grade) P.n [6] | Growth inhibition (hyphal expansion-inhibiting rate grade) P.h [7] | Growth inhibition (hyphal expansion-inhibiting rate grade) U.n [8] | Growth inhibition (hyphal expansion-inhibiting rate grade) G.f [9] | Growth inhibition (hyphal expansion-inhibiting rate grade) A.m [10] | Growth inhibition (hyphal expansion-inhibiting rate grade) S.s [11] | Growth inhibition (hyphal expansion-inhibiting rate grade) B.c [12] | Growth inhibition (hyphal expansion-inhibiting rate grade) F.c [13] | Growth inhibition (hyphal expansion-inhibiting rate grade) R.sec [14] | Damage index Growth inhibition (wheat)
CCCOC(=O)[C@]1(C)CC[C@@H](Cc2ccc(Cl)cc2)[C@]1(O)Cn1cncn1 (racemic) [Compound I-6, n-propyl-(1RS,2RS,3SR)-3-(4-chlorobenzyl)-2-hydroxy-1-methyl-2-(1H-1,2,4-triazol-1-ylmethyl)cyclopentanecarboxylate] | > 80 | ≥ 80 | 5 (81 to 100) | 5 (hyphal expansion-inhibiting rate: 80% or more) | 5 (hyphal expansion-inhibiting rate: 80% or more) | 5 (Controlling rate: 40 or more) | 5 (hyphal expansion-inhibiting rate: 80% or more) | 5 (hyphal expansion-inhibiting rate: 80% or more) | 5 (hyphal expansion-inhibiting rate: 80% or more) | 5 (hyphal expansion-inhibiting rate: 80% or more) | 5 (hyphal expansion-inhibiting rate: 80% or more) | 5 (hyphal expansion-inhibiting rate: 80% or more) | 5 (hyphal expansion-inhibiting rate: 80% or more) | 5 (hyphal expansion-inhibiting rate: 80% or more) | 5 (hyphal expansion-inhibiting rate: 80% or more) | 3 (20% or more and less than 40%)
COC(=O)[C@]1(C)CC[C@H](Cc2ccc(F)cc2)[C@@]1(O)Cn1cncn1 (racemic) [Compound I-53, methyl-(1RS, 2SR,3RS)-3-(4-fluorobenzyl)-2-hydroxy-1-methyl-2-(1H-1,2,4-triazol-1-ylmethyl)cyclopentanecarboxylate] | > 80 | ≥ 80 | 5 (81 to 100) | 5 (hyphal expansion-inhibiting rate: 80% or more) | 5 (hyphal expansion-inhibiting rate: 80% or more) | 5 (Controlling rate: 40 or more) | 5 (hyphal expansion-inhibiting rate: 80% or more) | 5 (hyphal expansion-inhibiting rate: 80% or more) | 5 (hyphal expansion-inhibiting rate: 80% or more) | 5 (hyphal expansion-inhibiting rate: 80% or more) | 5 (hyphal expansion-inhibiting rate: 80% or more) | 5 (hyphal expansion-inhibiting rate: 80% or more) | 5 (hyphal expansion-inhibiting rate: 80% or more) | 5 (hyphal expansion-inhibiting rate: 80% or more) | 5 (hyphal expansion-inhibiting rate: 80% or more) | 1 (60% or more and less than 80%)
COC(=O)[C@]1(C)CC[C@H](Cc2ccc(Cl)cc2)[C@@]1(O)Cn1cncn1 (racemic) [Compound I-132, methyl-(1RS,2SR,3RS)-3-(4-chlorobenzyl)-2-hydroxy-1-methyl-2-(1H-1,2,4-triazol-1-ylmethyl)cyclopentanecarboxylate] | > 80 | – | 5 (81 to 100) | 5 (hyphal expansion-inhibiting rate: 80% or more) | 5 (hyphal expansion-inhibiting rate: 80% or more) | 5 (Controlling rate: 40 or more) | 5 (hyphal expansion-inhibiting rate: 80% or more) | 5 (hyphal expansion-inhibiting rate: 80% or more) | 5 (hyphal expansion-inhibiting rate: 80% or more) | 5 (hyphal expansion-inhibiting rate: 80% or more) | 5 (hyphal expansion-inhibiting rate: 80% or more) | 5 (hyphal expansion-inhibiting rate: 80% or more) | 5 (hyphal expansion-inhibiting rate: 80% or more) | 5 (hyphal expansion-inhibiting rate: 80% or more) | 5 (hyphal expansion-inhibiting rate: 80% or more) | 5
CCOC(=O)[C@]1(C)CC[C@H](Cc2ccc(Cl)cc2)[C@@]1(O)Cn1cncn1 (racemic) [Compound I-133, ethyl-(1RS,2SR,3RS)-3-(4-chlorobenzyl)-2-hydroxy-1-methyl-2-(1H-1,2,4-triazol-1-ylmethyl)cyclopentanecarboxylate] | > 80 | – | 5 (81 to 100) | 5 (hyphal expansion-inhibiting rate: 80% or more) | 5 (hyphal expansion-inhibiting rate: 80% or more) | 5 (Controlling rate: 40 or more) | 5 (hyphal expansion-inhibiting rate: 80% or more) | 5 (hyphal expansion-inhibiting rate: 80% or more) | 5 (hyphal expansion-inhibiting rate: 80% or more) | 5 (hyphal expansion-inhibiting rate: 80% or more) | 5 (hyphal expansion-inhibiting rate: 80% or more) | 5 (hyphal expansion-inhibiting rate: 80% or more) | 5 (hyphal expansion-inhibiting rate: 80% or more) | 5 (hyphal expansion-inhibiting rate: 80% or more) | 5 (hyphal expansion-inhibiting rate: 80% or more) | 4 (1% or more and less than 20%)
C=CCOC(=O)[C@]1(C)CC[C@H](Cc2ccc(Cl)cc2)[C@@]1(O)Cn1cncn1 (racemic) [Compound I-134, allyl-(1RS,2SR,3RS)-3-(4-chlorobenzyl)-2-hydroxy-1-methyl-2-(1H-1,2,4-triazol-1-ylmethyl)cyclopentanecarboxylate] | > 80 | – | 5 (81 to 100) | 5 (hyphal expansion-inhibiting rate: 80% or more) | 5 (hyphal expansion-inhibiting rate: 80% or more) | 5 (Controlling rate: 40 or more) | 5 (hyphal expansion-inhibiting rate: 80% or more) | 5 (hyphal expansion-inhibiting rate: 80% or more) | 5 (hyphal expansion-inhibiting rate: 80% or more) | 5 (hyphal expansion-inhibiting rate: 80% or more) | 5 (hyphal expansion-inhibiting rate: 80% or more) | 5 (hyphal expansion-inhibiting rate: 80% or more) | 5 (hyphal expansion-inhibiting rate: 80% or more) | 5 (hyphal expansion-inhibiting rate: 80% or more) | 5 (hyphal expansion-inhibiting rate: 80% or more) | 3 (20% or more and less than 40%)
